Laboratory results as given in patent US20240390301A1, “COMBINATIONS OF PERIPHERAL 5-HT2A RECEPTOR ANTAGONISTS AND CENTRAL 5-HT2A RECEPTOR AGONISTS” (priority 2021, published 2024).
Like-named read-outs stand apart in the source and are kept apart here.

Experiments:
[1] = tested on: DOPR-induced elevation of MABP; test: Effect on DOPR-induced blood pressure (MABP) elevation in anesthetized rats; format: in vivo, Sprague-Dawley rats
Experimental: Key peripheral 5-HT2A receptor antagonists were tested for their ability to block the increases in blood pressure (BP) induced by a maximally effective dose (in terms of HTR response) of 2,5-dimethoxy-4-propylamphetamine (DOPR) in anesthetized rats, with the key results summarized in FIGS. 5-9. FIG. 5 depicts in a bar graph the effect of xylamidine pre-treatment on DOPR-induced elevation of MABP in the rat. The indicated doses of xylamidine or vehicle were administered SC, followed 10 minutes later by DOPR (0.32 mg/kg, SC), and mean percent change in MABP relative to the baseline recording for each group was calculated for the 20 minutes immediately after DOPR administration (10-30 min after administration of xylamidine). *p<0.05, **p<0.01 vs. vehicle using Dunnett's multiple comparison test. FIG. 6 depicts in a bar graph the effect of BW501C67 pre-treatment on DOPR-induced elevation of MABP in the rat. The indicated doses of BW501C67 or vehicle were administered SC, followed 10 minutes later by DOPR (0.32mg/kg, SC), and mean percent change in MABP relative to the baseline recording for each group was calculated for the 20 minutes immediately after DOPR administration (10-30 min after administration of BW501C67). *p<0.05 vs. vehicle using Dunnett's multiple comparison test. FIG. 7 depicts in a bar graph the effect of xylamidine pre-treatment on DOPR-induced elevation of MABP in the rat. The indicated doses of xylamidine or vehicle were administered SC. followed 10 minutes later by DOPR (0.32 mg/kg, SC), and mean percent change in MABP relative to the baseline recording for each group was calculated for the period 45-55 minutes after DOPR administration (55-65 min after administration of xylamidine). *p<0.05, ***p<0.001 vs. vehicle using Dunnett's multiple comparison test. FIG. 8 depicts in a bar graph the effect of BW501C67pre-treatment on DOPR-induced elevation of MABP in the rat. The indicated doses of BW501C67or vehicle were administered SC, followed 10 minutes later by DOPR (0.32 mg/kg, SC), and mean percent change in MABP relative to the baseline recording for each group was calculated for the period 45-55 minutes after DOPR administration (55-65 min after administration of BW501C67). *p<0.05, **p<0.01, ***p<0.001 vs. vehicle using Dunnett's multiple comparison test. FIG. 9 depicts in a bar graph the effect of Compound 14a pre-treatment on DOPR-induced elevation of MABP in the rat. The indicated doses of Compound 14a or vehicle were administered SC, followed 10 minutes later by DOPR (0.32 mg/kg, SC), and mean percent change in MABP relative to the baseline recording for each group was calculated for the 20 minutes immediately after DOPR administration (10-30 min after administration of Compound 14a).
Animals. Adult male Sprague-Dawley rats aged 8 weeks (body weight ˜270 g) were used in these experiments. Animals were pair housed under controlled temperatures and 12-hour light/dark cycles (lights on between 07:00-19:00 h), with ad libitum food and water. The protocol was approved by the Eurofins Advinus Institutional Animal Care and Use Committee. […]
Drugs and Drug administration. […] The 5-HT2A receptor agonist DOPR was then administered at 1 dose (0.32 mg/kg. SC, in saline, calculated based on the free base) to all animals 10 min after pretreatment with the test peripheral antagonist or vehicle (saline). […]

5-HT2A receptor [2] = molecular target: T1, 5-HT2A receptor (Homo sapiens, UniProt P28223); test: FLIPR Ca2+ flux functional assay, antagonist activity at 5-HT2A; format: cell-based; conditions: for 5-HT2A % Inh @ Max Dose: at max dose
T1 construct: WuXi AppTec (Hong Kong) Limited (contract laboratory that ran the assay)
Experimental: Key peripheral 5-HT2A receptors antagonists were tested for antagonist activity at several serotonin (5-HT) receptor subtypes (5-HT2A and 5-HT2B) using Ca^2+ flux functional assays, with the results summarized in Table 3. […] The ability to block peripheral 5-HT2B receptors in addition to 5-HT2A receptors is advantageous in the context of the present disclosure, as such blockade is likely to mitigate the potential cardiac valvulopathy induced by 5-HT2B receptor agonists. This is expected to be a potential side effect of many classical psychedelics, which activate 5-HT2B receptors as a secondary target. Accordingly, xylamidine and BW501C67 are preferred over Compound 14a for use in combination with 5-HT2A receptor agonists that also activate 5-HT2B receptors, since they also block this important off target. When taken together with the binding data presented above, xylamidine and BW501C67 appear to be potent pan-antagonists for 5-HT2-type receptors, whereas Compound 14a is selective for 5-HT2A receptors specifically.
Functional Assays at 5-HT2A and 5-HT2B. Antagonist activity at 5-HT2A and 5-HT2B receptors was determined using a FLIPR Ca^2+ flux assay at WuXi AppTec (Hong Kong) Limited according to their standard protocols. Briefly, stably transfected HEK293 cells expressing the receptor of interest were grown and plated in a 384 well plate and incubated at 37° C. and 5% CO2 overnight. This was combined with a fluorescent dye (Fluo-4 Direct™) to make a final assay concentration of 2.5 mM. Compounds were diluted 1:3.16 for 10 points and 750 nL was added to a 384 well compound plate using ECHO along with 30 μL assay buffer. The fluorescent dye was then added to the assay plate along with assay buffer to a final volume of 40 μL. The cell plate was incubated for 50 min at 37° C. and 5% CO2 and placed into the FLIPR Tetra along with the compound plate. 10 μL of references and compounds were then transferred from the compound plate into the cell plate and the fluorescent signal was read. Next, 10 μL of a 6× solution of 5-carboxamidotryptamine (5-CT) at the calculated EC80 was added and the fluorescent signal read again. Finally, the Max-Min signal was calculated for the runs with and without agonist.

5-HT2A receptor [3] = molecular target: T1, 5-HT2A receptor; test: 5-HT2A radioligand binding with [3H]ketanserin
Experimental: The binding affinities of key peripheral 5-HT2A receptor antagonists, as well as reference 5-HT2A agonists, at the ketanserin binding site of the 5-HT2A receptor and the mesulergine binding site of the 5-HT2C receptor were determined in radioligand binding experiments.
Method. Affinity of the test compounds for the 5-HT2A and 5-HT2C receptors was determined in radioligand binding experiments with [^3H] ketanserin and [^3H] mesulergine, respectively, by WuXi AppTec (Hong Kong) Limited, using methods adapted from the literature and under conditions described in Table 1.

[4] = 10-30 min after antagonist administration (0.01 to 10 mg/kg SC), DOPR 0.32 mg/kg SC
[5] = 55-65 min after antagonist administration (45-55 min after DOPR 0.32 mg/kg SC)
[6] = antagonist activity, Ca2+ flux, HEK293 cells, agonist at EC80, read-out: 5-HT2A IC50
[7] = HEK293 stable cell line, 1 nM [3H]ketanserin, 1 h, 25° C., read-out: 5-HT2A Ki (nM) ([3H]ketanserin)

T1 sequence (P28223 whole entry): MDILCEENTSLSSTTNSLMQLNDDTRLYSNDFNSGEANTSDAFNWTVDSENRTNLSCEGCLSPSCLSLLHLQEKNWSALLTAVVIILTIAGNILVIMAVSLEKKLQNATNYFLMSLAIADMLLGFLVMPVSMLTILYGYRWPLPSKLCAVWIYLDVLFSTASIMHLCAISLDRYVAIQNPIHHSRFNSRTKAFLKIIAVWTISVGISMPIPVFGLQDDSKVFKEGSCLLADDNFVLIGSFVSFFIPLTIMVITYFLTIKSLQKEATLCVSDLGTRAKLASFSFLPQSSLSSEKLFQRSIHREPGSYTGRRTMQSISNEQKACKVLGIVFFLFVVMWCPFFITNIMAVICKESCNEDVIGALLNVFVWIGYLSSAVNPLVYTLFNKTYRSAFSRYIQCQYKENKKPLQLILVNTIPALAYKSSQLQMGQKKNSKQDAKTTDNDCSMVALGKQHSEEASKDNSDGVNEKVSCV

SMILES | Attenuation of DOPR-induced elevation of MABP [1, 4] | Attenuation of DOPR-induced elevation of MABP [1, 5] | IC50 (5-HT2A receptor [2]) [nM] | 5-HT2A % Inh @ Max Dose (5-HT2A receptor [2]; antagonist activity, Ca2+ flux) [%] | Ki (5-HT2A receptor [3]) [nM] | IC50 (5-HT2A receptor [2]; [6]) [nM] | Ki (5-HT2A receptor [3]; [7]) [nM]
CC(CNC(=N)CNc1ccccc1)Oc1cccc(Cl)c1.O=CO (centres unmarked) [BW501C67, N-(2-(3-chlorophenoxy)propyl)-2-(phenylamino)acetimidamide formate] | significantly attenuated | showing activity at lower doses | 14.5 | 100.13 | 0.42 | – | –
CC(C)COc1ccc(CNC(=O)N(Cc2ccc(F)cc2)C2CCN(C(=O)CC[C@H](N)C(=O)O)CC2)cc1 [Compound 14a, (S)-2-amino-5-(4-(1-(4-fluorobenzyl)-3-(4-isobutoxybenzyl)ureido)piperidin-1-yl)-5-oxopentanoic acid] | failed to significantly attenuate | – | – | 100.01 | – | 297 | 3.83
COc1cccc(OC(C)CNC(=N)Cc2cccc(C)c2)c1.O=C(O)C(F)(F)F (centres unmarked) [xylamidine, N-(2-(3-methoxyphenoxy)propyl)-2-(m-tolyl) acetimidamide trifluoroacetate] | significantly attenuated | showing activity at lower doses | – | 99.81 | – | 24 | 0.55
